Test results reported in US20140329679A1, “HERBICIDAL COMPOSITIONS COMPRISING TRIFLUOROME THANESULFONANILIDES AND SAFENERS” (priority 2011, published 2014).

Columns and labels:
Format in all cases: in vivo
[1] = system: Maize (variety Claxxon); experiment: Pre-emergence safening on corn, seed treated with safener, general crop injury; conditions: 250 g/ha compound of formula (I) sprayed the day after planting, evaluated after 21 days; for Percentage damage, corn treated with safener A: seed treated with safener A at 0.2 g per kg seed, mean of two replicates; for Percentage damage, untreated corn: seed without safener, mean % visual phytotoxicity of two replicates
Protocol: (§1) Maize (variety Claxxon) and wheat (variety Hereward) seeds were treated with a herbicide safener at a rate of 0.2 g safener per kg seed (maize) and 0.25 g safener per kg seed (wheat) prior to sowing. Treated and untreated seeds were sown into standard soil in troughs. The safeners used were N-(2-methoxybenzoyl)-4-Rmethylaminocarbonyl)aminoThenzenesulfonamide (safener A in Table 2) and cloquintocet-mexyl.
(§2) The day after planting the troughs were sprayed with an aqueous spray solution prepared by dissolving the technical active ingredient in an organic solvent and diluting with deionised water to give a final dose of 250 g/ha of a compound of formula (I).
(§3) The spray solution was applied with a cabinet tracksprayer with a flat fan nozzle (Teejet 11002VS) and an application volume of 200 L/ha (at 2 bar).
(§4) The test plants were then grown on in a glasshouse under controlled conditions (at 24/18° C. day/night; 16 hours light; 65% humidity) and watered twice a day. After 21 days the test was evaluated for general crop injury (100% equals total damage to plant; 0% equals no damage to plant).
(§5) Results are shown below in Table 2 as the mean % visual phytotoxicity of two replicates.

[2] = system: wheat (variety Hereward); experiment: Pre-emergence safening on wheat, seed treated with safener, general crop injury; conditions: 250 g/ha compound of formula (I) sprayed the day after planting, evaluated after 21 days; for Percentage damage, wheat treated with cloquintocet-mexyl: seed treated with cloquintocet-mexyl at 0.25 g per kg seed, mean of two replicates; for Percentage damage, untreated wheat: seed without safener, mean % visual phytotoxicity of two replicates
Protocol: as §1, §2, §3, §4, §5

[3] = system: soya (variety Nikko); experiment: Post-emergence crop safening on soya, general crop injury; conditions: compound of formula (I) alone at 200 g/ha, post-emergence spray at 2-3 leaf stage, evaluated after 21 days; 100% = total damage, 0% = no damage; single replicate
Protocol: Maize (variety Garland) and soya (variety Nikko) seeds were sown into standard soil in pots and cultivated under controlled conditions in a glasshouse (at 24/18° C. day/night; 16 hours light; 65% humidity). […] All the compounds used for the spray solution were present as technical material and the safeners were either an EC, SC or WP formulation respectively or technical material. In addition a non-ionic surfactant (Tween 20) was added to form a 0.25% v/v solution. The spray solution was applied with a cabinet tracksprayer with a flat fan nozzle (Teejet 11002VS) and an application volume of 200 L/ha (at 2 bar). The test plants were then grown on in a glasshouse under controlled conditions (at 24/18° C. day/night; 16 hours light; 65% humidity) and watered twice a day. […] Results are shown below in Table 3 as the mean % visual phytotoxicity of two replicates and in Table 4 as the mean % visual phytotoxicity of a single replicate.

[4] = system: Maize (variety Garland); experiment: Post-emergence crop safening on maize, general crop injury; conditions: post-emergence spray at 2-3 leaves; 500 g/ha Compound 41 alone or with 100 g/ha safener; 0.25% v/v Tween 20; evaluated after 21 days; mean of two replicates
Protocol: Maize (variety Garland) and soya (variety Nikko) seeds were sown into standard soil in pots and cultivated under controlled conditions in a glasshouse (at 24/18° C. day/night; 16 hours light; 65% humidity).
When the plants were at the vegetative stage of 2-3 leaves they were sprayed with an aqueous spray solution containing a compound of formula (I) alone and in combination with a number of different herbicide safeners. All the compounds used for the spray solution were present as technical material and the safeners were either an EC, SC or WP formulation respectively or technical material. In addition a non-ionic surfactant (Tween 20) was added to form a 0.25% v/v solution.
as §3, §4
Results are shown below in Table 3 as the mean % visual phytotoxicity of two replicates and in Table 4 as the mean % visual phytotoxicity of a single replicate.

Structure (SMILES): O=C1CCCN1Cc1ccccc1NS(=O)(=O)C(F)(F)F [Compound 1]
- Percentage damage, corn treated with safener A [1]: 5%
- Percentage damage, untreated corn [1]: 30%
- Percentage damage, wheat treated with cloquintocet-mexyl [2]: 5%
- Percentage damage, untreated wheat [2]: 35%

Structure (SMILES): O=C1CCCCN1Cc1ccccc1NS(=O)(=O)C(F)(F)F [Compound 5]
- Percentage damage, corn treated with safener A [1]: 25%
- Percentage damage, untreated corn [1]: 55%
- Percentage damage, wheat treated with cloquintocet-mexyl [2]: 20%
- Percentage damage, untreated wheat [2]: 45%

Structure (SMILES): CCCC(=O)N(c1ccccc1CN1CCCCC1=O)S(=O)(=O)C(F)(F)F [Compound 6]
- Percentage damage, corn treated with safener A [1]: 5%
- Percentage damage, untreated corn [1]: 80%
- Percentage damage, wheat treated with cloquintocet-mexyl [2]: 10%
- Percentage damage, untreated wheat [2]: 30%

Structure (SMILES): CCOC(=O)N(c1ccccc1CN1CCCCC1=O)S(=O)(=O)C(F)(F)F [Compound 7]
- Percentage damage, corn treated with safener A [1]: 10%
- Percentage damage, untreated corn [1]: 98%
- Percentage damage, wheat treated with cloquintocet-mexyl [2]: 30%
- Percentage damage, untreated wheat [2]: 50%

Structure (SMILES): CCC(=O)N(c1ccccc1CN1CCCC(SC)C1=O)S(=O)(=O)C(F)(F)F (stereo not shown) [Compound 16]
- Percentage damage, corn treated with safener A [1]: 2.5%
- Percentage damage, untreated corn [1]: 86%
- Percentage damage, wheat treated with cloquintocet-mexyl [2]: 15%
- Percentage damage, untreated wheat [2]: 40%

Structure (SMILES): CC1(C)CC(=O)N(Cc2ccccc2NS(=O)(=O)C(F)(F)F)O1 [Compound 20]
- Percentage damage, corn treated with safener A [1]: 0%
- Percentage damage, untreated corn [1]: 40%
- Percentage damage, wheat treated with cloquintocet-mexyl [2]: 15%
- Percentage damage, untreated wheat [2]: 25%

Structure (SMILES): CC1(C)CC(=O)N(Cc2ccccc2N(C(=O)OCCl)S(=O)(=O)C(F)(F)F)O1 [Compound 21]
- Percentage damage, corn treated with safener A [1]: 20%
- Percentage damage, untreated corn [1]: 30%
- Percentage damage, wheat treated with cloquintocet-mexyl [2]: 5%
- Percentage damage, untreated wheat [2]: 20%

Structure (SMILES): O=C1COCCN1Cc1ccccc1NS(=O)(=O)C(F)(F)F [Compound 41]
- Percentage damage, corn treated with safener A [1]: 5%
- Percentage damage, untreated corn [1]: 80%
- Percentage damage caused to soya (mean % visual phytotoxicity, general crop injury) [3]: 30%
- Percentage damage caused to maize [4]: 25%
- Percentage damage, wheat treated with cloquintocet-mexyl [2]: 10%
- Percentage damage, untreated wheat [2]: 35%

Structure (SMILES): O=C1NCCCN1Cc1ccccc1NS(=O)(=O)C(F)(F)F [Compound 53]
- Percentage damage, corn treated with safener A [1]: 5%
- Percentage damage, untreated corn [1]: 40%
- Percentage damage, wheat treated with cloquintocet-mexyl [2]: 10%
- Percentage damage, untreated wheat [2]: 40%

Structure (SMILES): CC1(C)CN(Cc2ccccc2NS(=O)(=O)C(F)(F)F)C(=O)O1 [Compound 85]
- Percentage damage, corn treated with safener A [1]: 15%
- Percentage damage, untreated corn [1]: 65%
- Percentage damage, wheat treated with cloquintocet-mexyl [2]: 15%
- Percentage damage, untreated wheat [2]: 40%

Structure (SMILES): CC1(C(F)(F)F)CCN(Cc2ccccc2N(C(=O)OCCl)S(=O)(=O)C(F)(F)F)C(=O)O1 (stereo not shown) [Compound 102]
- Percentage damage, corn treated with safener A [1]: 0%
- Percentage damage, untreated corn [1]: 5%
- Percentage damage, wheat treated with cloquintocet-mexyl [2]: 0%
- Percentage damage, untreated wheat [2]: 10%

Structure (SMILES): CCOC(=O)N(c1ccccc1CN1CCC(C)(C(F)(F)F)OC1=O)S(=O)(=O)C(F)(F)F (stereo not shown) [Compound 103]
- Percentage damage, corn treated with safener A [1]: 0%
- Percentage damage, untreated corn [1]: 10%
- Percentage damage, wheat treated with cloquintocet-mexyl [2]: 0%
- Percentage damage, untreated wheat [2]: 15%

Structure (SMILES): CCC1(C(F)(F)F)CCN(Cc2ccccc2NS(=O)(=O)C(F)(F)F)C(=O)O1 (stereo not shown) [Compound 106]
- Percentage damage caused to soya (mean % visual phytotoxicity, general crop injury) [3]: 15%

Structure (SMILES): CCOC(=O)N(c1ccccc1CN1CCCCS1(=O)=O)S(=O)(=O)C(F)(F)F [Compound 133]
- Percentage damage, corn treated with safener A [1]: 10%
- Percentage damage, untreated corn [1]: 20%
- Percentage damage, wheat treated with cloquintocet-mexyl [2]: 5%
- Percentage damage, untreated wheat [2]: 25%

Structure (SMILES): CN1CCCN(Cc2ccccc2N(C(=O)OCCl)S(=O)(=O)C(F)(F)F)S1(=O)=O [Compound 145]
- Percentage damage, corn treated with safener A [1]: 0%
- Percentage damage, untreated corn [1]: 20%
- Percentage damage, wheat treated with cloquintocet-mexyl [2]: 5%
- Percentage damage, untreated wheat [2]: 10%

Structure (SMILES): CCOC(=O)N(c1ccccc1CN1CCCN(C)S1(=O)=O)S(=O)(=O)C(F)(F)F [Compound 146]
- Percentage damage, corn treated with safener A [1]: 0%
- Percentage damage, untreated corn [1]: 22.5%
- Percentage damage, wheat treated with cloquintocet-mexyl [2]: 17.5%
- Percentage damage, untreated wheat [2]: 40%

Structure (SMILES): CC(C)COC(=O)N(c1ccccc1CN1CCCN(C)S1(=O)=O)S(=O)(=O)C(F)(F)F [Compound 147]
- Percentage damage, corn treated with safener A [1]: 2.5%
- Percentage damage, untreated corn [1]: 15%
- Percentage damage, wheat treated with cloquintocet-mexyl [2]: 5%
- Percentage damage, untreated wheat [2]: 25%
